Measured values: patent publication US20120121591A1 (priority 2009, published 2012)
pIC50: −log10 of the molar value. Read-outs that look alike come from different tables or passages of the source.

What was measured:
Assay type in all cases: cell-based
[1] = test system: IFN-g secretion from T cells in human whole blood; conditions: read-out: WB (IFNg) IC50 (nM, Avg)
[2] = test system: IL-2 secretion from T cells in human whole blood; conditions: for IC50: read-out: WB (IL-2) IC50 (nM, Avg)
hKv1.3 = hKv1.3 (Homo sapiens, UniProt P22001); test: cell-based; conditions: Kv1.3 (IWQ) IC50 (nM, Avg)
Sequence of hKv1.3 (P22001 whole entry): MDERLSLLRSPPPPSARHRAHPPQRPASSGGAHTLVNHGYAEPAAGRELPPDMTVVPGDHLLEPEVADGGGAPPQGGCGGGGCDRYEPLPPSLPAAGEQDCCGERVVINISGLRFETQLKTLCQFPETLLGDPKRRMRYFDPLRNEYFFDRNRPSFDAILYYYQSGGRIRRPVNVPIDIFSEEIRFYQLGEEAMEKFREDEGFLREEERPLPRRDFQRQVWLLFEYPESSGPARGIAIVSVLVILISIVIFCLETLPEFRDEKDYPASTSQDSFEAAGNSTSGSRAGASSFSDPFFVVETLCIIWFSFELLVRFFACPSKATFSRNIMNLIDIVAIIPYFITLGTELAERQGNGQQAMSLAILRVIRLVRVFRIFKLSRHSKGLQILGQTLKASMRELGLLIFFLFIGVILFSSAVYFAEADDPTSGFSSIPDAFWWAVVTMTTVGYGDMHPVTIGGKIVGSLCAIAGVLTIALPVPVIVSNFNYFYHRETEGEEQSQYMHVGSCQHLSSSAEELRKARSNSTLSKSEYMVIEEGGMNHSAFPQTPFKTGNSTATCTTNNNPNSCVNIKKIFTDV

SMILES | IC50 [1] | IC50 [2] | IC50 (hKv1.3) | pIC50 ([2]; read-out: WB (IL-2) IC50)
CC[C@H](C)[C@@H]1NC(=O)[C@@H](NC(=O)[C@H](CO)NC(=O)[C@@H](N)CCCNC(=N)N)CSSC[C@@H](C(=O)O)NC(=O)[C@H]([C@@H](C)O)NC(=O)CNC(=O)[C@@H]2CSSC[C@@H]3NC(=O)[C@H](CCCCN)NC(=O)[C@H](Cc4ccccc4)NC(=O)[C@H](C)NC(=O)[C@H]([C@@H](C)O)NC(=O)[C@H](CSSC[C@H](NC(=O)[C@H](Cc4ccccc4)NC(=O)[C@H](CO)NC(=O)[C@H](CC(C)C)NC(=O)[C@H](CCCNC(=N)N)NC(=O)[C@H](Cc4ccc(O)cc4)NC(=O)[C@H](CCCCN)NC(=O)[C@H](CCSC)NC(=O)[C@H](CO)NC(=O)[C@H](Cc4c[nH]cn4)NC(=O)[C@H](CCCCN)NC3=O)C(=O)N[C@@H](CCCCN)C(=O)N[C@@H](CCCCN)C(=O)N[C@@H]([C@@H](C)O)C(=O)N2)NC(=O)[C@H](CCCNC(=N)N)NC(=O)[C@H](CO)NC(=O)[C@H](CCCCN)NC(=O)[C@@H]2CCCN2C(=O)[C@H]([C@@H](C)CC)NC(=O)[C@H]([C@@H](C)O)NC(=O)[C@H](CC(=O)O)NC1=O [[Lys16, Lys29]ShK] | 0.143 nM | 0.112 nM | 0.071 nM | 
CC[C@H](C)[C@@H]1NC(=O)[C@@H](NC(=O)[C@H](CO)NC(=O)[C@@H](N)CCCNC(=N)N)CSSC[C@@H](C(N)=O)NC(=O)[C@H]([C@@H](C)O)NC(=O)CNC(=O)[C@@H]2CSSC[C@@H]3NC(=O)[C@H](CCCCN)NC(=O)[C@H](Cc4ccccc4)NC(=O)[C@H](C)NC(=O)[C@H]([C@@H](C)O)NC(=O)[C@H](CSSC[C@H](NC(=O)[C@H](Cc4ccccc4)NC(=O)[C@H](CO)NC(=O)[C@H](CC(C)C)NC(=O)[C@H](CCCNC(=N)N)NC(=O)[C@H](Cc4ccc(O)cc4)NC(=O)[C@H](CCCCN)NC(=O)[C@H](CC[S+](C)[O-])NC(=O)[C@H](CO)NC(=O)[C@H](Cc4c[nH]cn4)NC(=O)[C@H](CCCCN)NC3=O)C(=O)N[C@@H](CCCNC(=N)N)C(=O)N[C@@H](CCCCN)C(=O)N[C@@H]([C@@H](C)O)C(=O)N2)NC(=O)[C@H](CCCNC(=N)N)NC(=O)[C@H](CO)NC(=O)[C@H](CCCCN)NC(=O)[C@@H]2CCCN2C(=O)[C@H]([C@@H](C)CC)NC(=O)[C@H]([C@@H](C)O)NC(=O)[C@H](CC(=O)O)NC1=O (stereo partly shown) [[Lys16, Met(O)21]ShK-amide] | 0.289 nM | 0.24 nM | 0.106 nM | 
CCCC[C@@H]1NC(=O)[C@H](CO)NC(=O)[C@H](Cc2c[nH]cn2)NC(=O)[C@H](CCCCN)NC(=O)[C@@H]2CSSC[C@@H]3NC(=O)[C@H]([C@@H](C)O)NC(=O)[C@H](CCCNC(=N)N)NC(=O)[C@H](CCCNC(=N)N)NC(=O)[C@H](CSSC[C@H](NC(=O)[C@H](CCCNC(=N)N)NC(=O)[C@H](CO)NC(=O)[C@H](CCCCN)NC(=O)[C@@H]4CCCN4C(=O)[C@H]([C@@H](C)CC)NC(=O)[C@H]([C@@H](C)O)NC(=O)[C@H](CC(=O)O)NC(=O)[C@H]([C@@H](C)CC)NC(=O)[C@@H](NC(=O)[C@H](CO)NC(=O)[C@@H](N)CCCNC(=N)N)CSSC[C@@H](C(N)=O)NC(=O)[C@H]([C@@H](C)O)NC(=O)CNC3=O)C(=O)N[C@@H]([C@@H](C)O)C(=O)N[C@@H](C)C(=O)N[C@@H](Cc3ccccc3)C(=O)N[C@@H](CCCCN)C(=O)N2)NC(=O)[C@H](Cc2ccccc2)NC(=O)[C@H](CO)NC(=O)[C@H](CC(C)C)NC(=O)[C@H](CCCNC(=N)N)NC(=O)[C@H](Cc2ccc(O)cc2)NC(=O)[C@H](CCCCN)NC1=O [[Lys16, Nle21,Arg30]ShK-amide] | 1.9 nM | 0.953 nM | 0.423 nM | 
CCCC[C@@H]1NC(=O)[C@H](CO)NC(=O)[C@H](Cc2c[nH]cn2)NC(=O)[C@H](CCCCN)NC(=O)[C@@H]2CSSC[C@@H]3NC(=O)[C@H]([C@@H](C)O)NC(=O)[C@H](CCC(=O)O)NC(=O)[C@H](CCCNC(=N)N)NC(=O)[C@H](CSSC[C@H](NC(=O)[C@H](CCCNC(=N)N)NC(=O)[C@H](CO)NC(=O)[C@H](CCCCN)NC(=O)[C@@H]4CCCN4C(=O)[C@H]([C@@H](C)CC)NC(=O)[C@H]([C@@H](C)O)NC(=O)[C@H](CC(=O)O)NC(=O)[C@H]([C@@H](C)CC)NC(=O)[C@@H](NC(=O)[C@H](CO)NC(=O)[C@@H](N)CCCNC(=N)N)CSSC[C@@H](C(N)=O)NC(=O)[C@H]([C@@H](C)O)NC(=O)CNC3=O)C(=O)N[C@@H]([C@@H](C)O)C(=O)N[C@@H](C)C(=O)N[C@@H](Cc3ccccc3)C(=O)N[C@@H](CCCCN)C(=O)N2)NC(=O)[C@H](Cc2ccccc2)NC(=O)[C@H](CO)NC(=O)[C@H](CC(C)C)NC(=O)[C@H](CCCNC(=N)N)NC(=O)[C@H](Cc2ccc(O)cc2)NC(=O)[C@H](CCCCN)NC1=O [[Lys16, Nle21,Glu30]ShK-amide] | 5.03 nM | 3.18 nM | 1.88 nM | 
CCCC[C@@H]1NC(=O)[C@H](CO)NC(=O)[C@H](Cc2c[nH]cn2)NC(=O)[C@H](CCCCN)NC(=O)[C@@H]2CSSC[C@@H]3NC(=O)[C@H]([C@@H](C)O)NC(=O)[C@H](CCCCN)NC(=O)[C@H](CCCNC(=N)N)NC(=O)[C@H](CSSC[C@H](NC(=O)[C@H](CCCNC(=N)N)NC(=O)[C@H](CO)NC(=O)[C@H](CCCCN)NC(=O)[C@@H]4CCCN4C(=O)[C@H]([C@@H](C)CC)NC(=O)[C@H]([C@@H](C)O)NC(=O)[C@H](CC(=O)O)NC(=O)[C@H]([C@@H](C)CC)NC(=O)[C@@H](NC(=O)[C@H](CO)NC(=O)[C@@H](N)CCCNC(=N)N)CSSC[C@@H](C(=O)N[C@@H](CC(=O)O)C(N)=O)NC(=O)[C@H]([C@@H](C)O)NC(=O)CNC3=O)C(=O)N[C@@H]([C@@H](C)O)C(=O)N[C@@H](C)C(=O)N[C@@H](Cc3ccccc3)C(=O)N[C@@H](CCCCN)C(=O)N2)NC(=O)[C@H](Cc2ccccc2)NC(=O)[C@H](CO)NC(=O)[C@H](CC(C)C)NC(=O)[C@H](CCCNC(=N)N)NC(=O)[C@H](Cc2ccc(O)cc2)NC(=O)[C@H](CCCCN)NC1=O [[Lys16, Nle21]ShK-Asp-amide] | 0.403 nM | 0.295 nM | 0.39 nM | 
CCCC[C@@H]1NC(=O)[C@H](CO)NC(=O)[C@H](Cc2c[nH]cn2)NC(=O)[C@H](CCCCN)NC(=O)[C@@H]2CSSC[C@@H]3NC(=O)[C@H]([C@@H](C)O)NC(=O)[C@H](CCCCN)NC(=O)[C@H](CCCNC(=N)N)NC(=O)[C@H](CSSC[C@H](NC(=O)[C@H](CCCNC(=N)N)NC(=O)[C@H](CO)NC(=O)[C@H](CCCCN)NC(=O)[C@@H]4CCCN4C(=O)[C@H]([C@@H](C)CC)NC(=O)[C@H]([C@@H](C)O)NC(=O)[C@H](CC(=O)O)NC(=O)[C@H]([C@@H](C)CC)NC(=O)[C@@H](NC(=O)[C@H](CO)NC(=O)[C@@H](N)CCCNC(=N)N)CSSC[C@@H](C(N)=O)NC(=O)[C@H]([C@@H](C)O)NC(=O)CNC3=O)C(=O)N[C@@H]([C@@H](C)O)C(=O)N[C@@H](C)C(=O)N[C@@H](Cc3ccccc3)C(=O)N[C@@H](CCCCN)C(=O)N2)NC(=O)[C@H](Cc2ccccc2)NC(=O)[C@H](CO)NC(=O)[C@H](CC(C)C)NC(=O)[C@H](CCCNC(=N)N)NC(=O)[C@H](Cc2ccc(O)cc2)NC(=O)[C@H](CCCCN)NC1=O [[Lys16, Nle21]ShK-amide] | 1.1 nM | 0.823 nM | 0.153 nM | 9.09
CCC[C@@H]1NC(=O)[C@H](CO)NC(=O)[C@H](Cc2c[nH]cn2)NC(=O)[C@H](CCCCN)NC(=O)[C@@H]2CSSC[C@@H]3NC(=O)[C@H]([C@@H](C)O)NC(=O)[C@H](CCCCN)NC(=O)[C@H](CCCNC(=N)N)NC(=O)[C@H](CSSC[C@H](NC(=O)[C@H](CCCNC(=N)N)NC(=O)[C@H](CO)NC(=O)[C@H](CCCCN)NC(=O)[C@@H]4CCCN4C(=O)[C@H]([C@@H](C)CC)NC(=O)[C@H]([C@@H](C)O)NC(=O)[C@H](CC(=O)O)NC(=O)[C@H]([C@@H](C)CC)NC(=O)[C@@H](NC(=O)[C@H](CO)NC(=O)[C@@H](N)CCCNC(=N)N)CSSC[C@@H](C(=O)N[C@@H](CCC(=O)O)C(N)=O)NC(=O)[C@H]([C@@H](C)O)NC(=O)CNC3=O)C(=O)N[C@@H]([C@@H](C)O)C(=O)N[C@@H](C)C(=O)N[C@@H](Cc3ccccc3)C(=O)N[C@@H](CCCCN)C(=O)N2)NC(=O)[C@H](Cc2ccccc2)NC(=O)[C@H](CO)NC(=O)[C@H](CC(C)C)NC(=O)[C@H](CCCNC(=N)N)NC(=O)[C@H](Cc2ccc(O)cc2)NC(=O)[C@H](CCCCN)NC1=O [[Lys16, Nva21]ShK-Glu-amide] | 0.353 nM | 0.218 nM | 0.21 nM | 
CCC[C@@H]1NC(=O)[C@H](CO)NC(=O)[C@H](Cc2c[nH]cn2)NC(=O)[C@H](CCCCN)NC(=O)[C@@H]2CSSC[C@@H]3NC(=O)[C@H]([C@@H](C)O)NC(=O)[C@H](CCCCN)NC(=O)[C@H](CCCNC(=N)N)NC(=O)[C@H](CSSC[C@H](NC(=O)[C@H](CCCNC(=N)N)NC(=O)[C@H](CO)NC(=O)[C@H](CCCCN)NC(=O)[C@@H]4CCCN4C(=O)[C@H]([C@@H](C)CC)NC(=O)[C@H]([C@@H](C)O)NC(=O)[C@H](CC(=O)O)NC(=O)[C@H]([C@@H](C)CC)NC(=O)[C@@H](NC(=O)[C@H](CO)NC(=O)[C@@H](N)CCCNC(=N)N)CSSC[C@@H](C(N)=O)NC(=O)[C@H]([C@@H](C)O)NC(=O)CNC3=O)C(=O)N[C@@H]([C@@H](C)O)C(=O)N[C@@H](C)C(=O)N[C@@H](Cc3ccccc3)C(=O)N[C@@H](CCCCN)C(=O)N2)NC(=O)[C@H](Cc2ccccc2)NC(=O)[C@H](CO)NC(=O)[C@H](CC(C)C)NC(=O)[C@H](CCCNC(=N)N)NC(=O)[C@H](Cc2ccc(O)cc2)NC(=O)[C@H](CCCCN)NC1=O [[Lys16, Nva21]ShK-amide] | 0.932 nM | 0.486 nM | 0.47 nM | 
